Data reported in patent publication US12239643B2, “Therapeutic agent for inflammatory diseases, autoimmune diseases, fibrotic diseases, and cancer diseases” (MEIJI SEIKA PHARMA CO., LTD., priority 2018, dated 2025).
Where two headings read alike, the source gives them in different places.

System: PDE4
Assay: Evaluation of PDE4 inhibitory activity, scintillation proximity assay
Type: biochemical
Settings: scintillation proximity assay
Outline: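 IC50 was derived from inhibition curves, referenced to an enzyme-free blank and a DMSO-only control. Compound, PDE4 preparation and tritiated cAMP reacted 120 min at RT in Tris-HCl buffer (pH 7.4) with MgCl2, EGTA and BSA; YSi-SPA beads with ZnSO4 bound product before scintillation counting.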

[1] = class symbols of Evaluation 1, read-out: PDE4 Inhibitory Activity (concentration for the inhibition rate of 50%, IC50), Evaluation 1
[2] = read-out: PDE4 Inhibitory Activity (Evaluation 1; concentration for the inhibition rate of 50%)

SMILES	IC50 [1] [nM]	IC50 [2] [nM]
O=C(c1cc(-c2nccs2)c2oc(N3CC4CCC(C3)N4)nc2c1)N1CCCCC1 [Example 96, (2-(3,8-Diazabicyclo[3.2.1]octan-3-yl)-7-(thiazol-2-yl)benzo[d]oxazol-5-yl)(piperidin-1-yl)methanone]	< 100	–
CON=C(C)c1cc(-c2nccs2)c2oc(N3CC4CCC(C3)N4)nc2c1OC(F)(F)F (mixture of isomers) [Example 218, (E)-1-(2-(3,8-diazabicyclo[3.2.1]octan-3-yl)-7-(thiazol-2-yl)-4-(trifluoromethoxy)benzo[d]oxazol-5-yl)ethan-1-one O-methyloxime and (Z)-1-(2-(3,8-diazabicyclo[3.2.1]octan-3-yl)-7-(thiazol-2-yl)-4-(trifluoromethoxy)benzo[d]oxazol-5-yl)ethan-1-one O-methyloxime]	–	< 100
CC(O)(c1ccc(-c2nccs2)c2oc(N3CC4CC(C3)N4)nc12)C(F)(F)F (stereo not shown) [Example 270, 2-(2-(3,6-Diazabicyclo[3.1.1]heptan-3-yl)-7-(thiazol-2-yl)benzo[d]oxazol-4-yl)-1,1,1-trifluoropropan-2-ol]	–	< 100
OCCOC(c1ccc(-c2nccs2)c2oc(N3CC4CC(C3)N4)nc12)C(F)(F)F (stereo not shown) [Example 227, 2-(1-(2-(3,6-Diazabicyclo[3.1.1]heptan-3-yl)-7-(thiazol-2-yl)benzo[d]oxazol-4-yl)-2,2,2-trifluoroethoxy)ethan-1-ol]	–	< 100
CC(O)c1ccc(-c2nccs2)c2oc(N3CC4CC(C3)N4)nc12 (stereo not shown) [Example 240, 1-(2-(3,6-Diazabicyclo[3.1.1]heptan-3-yl)-7-(thiazol-2-yl)benzo[d]oxazol-4-yl)ethan-1-ol]	–	< 100
O=C(NO)c1ccc(-c2nccs2)c2oc(N3CC4CC(C3)N4)nc12 [Example 367, 2-(3,6-Diazabicyclo[3.1.1]heptan-3-yl)-N-hydroxy-7-(thiazol-2-yl)benzo[d]oxazole-4-carboxamide]	–	< 100
CCOC(=O)c1cc(-c2nccs2)c2oc(N3CC4CCC(C3)N4)nc2c1OC(F)(F)F [Example 186, Ethyl 2-(3,8-diazabicyclo[3.2.1]octan-3-yl)-7-(thiazol-2-yl)-4-(trifluoromethoxy)benzo[d]oxazole-5-carboxylate]	–	< 100
CN(CCO)S(=O)(=O)c1ccc(-c2nccs2)c2oc(N3CC4CC(C3)N4)nc12 [Example 389, 2-(3,6-Diazabicyclo[3.1.1]heptan-3-yl)-N-(2-hydroxyethyl)-N-methyl-7-(thiazol-2-yl)benzo[d]oxazole-4-sulfonamide]	–	< 100
FC(F)(F)c1ccc(-c2nccs2)c2oc(N3CC4CCC(C3)N4)nc12 [Example 31, 2-(3,8-Diazabicyclo[3.2.1]octan-3-yl)-7-(thiazol-2-yl)-4-(trifluoromethyl)benzo[d]oxazole]	< 100	–
OC(c1cc(-n2cccn2)c2oc(N3CC4CCC(C3)N4)nc2c1)C(F)(F)F (stereo not shown) [Example 140, 1-(2-(3,8-Diazabicyclo[3.2.1]octan-3-yl)-7-(1H-pyrazol-1-yl)benzo[d]oxazol-5-yl)-2,2,2-trifluoroethan-1-ol]	< 100	–
FC(F)(F)COC(c1cc(-c2nccs2)c2oc(N3CC4CC(C3)N4)nc2c1)C(F)(F)F (stereo not shown) [Example 151, 2-(3,6-Diazabicyclo[3.1.1]heptan-3-yl)-7-(thiazol-2-yl)-5-(2,2,2-trifluoro-1-(2,2,2-trifluoroethoxy)ethyl)benzo[d]oxazole]	< 100	–
CCOC(c1ccc(-c2nccs2)c2oc(N3CC4CC(C3)N4)nc12)C(F)(F)F (stereo not shown) [Example 224, 2-(3,6-Diazabicyclo[3.1.1]heptan-3-yl)-4-(1-ethoxy-2,2,2-trifluoroethyl)-7-(thiazol-2-yl)benzo[d]oxazole]	–	< 100
COC(c1cc(-c2nccs2)c2oc(N3CC4CCC(C3)N4)nc2c1)C(F)F (stereo not shown) [Example 105, 2-(3,8-Diazabicyclo[3.2.1]octan-3-yl)-5-(2,2-difluoro-1-methoxyethyl)-7-(thiazol-2-yl)benzo[d]oxazole]	< 100	–
O=C(c1ccc(-c2nccs2)c2oc(N3CC4CCC(C3)N4)nc12)N1CCOCC1 [Example 116, (2-(3,8-Diazabicyclo[3.2.1]octan-3-yl)-7-(thiazol-2-yl)benzo[d]oxazol-4-yl) (morpholino)methanone]	< 100	–
CN(CCO)C(=O)C(F)(F)Oc1ccc(-c2nccs2)c2oc(N3CC4CC(C3)N4)nc12 [Example 407, 2-((2-(3,6-Diazabicyclo[3.1.1]heptan-3-yl)-7-(thiazol-2-yl)benzo[d]oxazol-4-yl)oxy)-2,2-difluoro-N-(2-hydroxyethyl)-N-methylacetamide]	–	< 100
COC(c1ccc(-c2nccs2)c2oc(N3CC4CCC(C3)N4)nc12)C(F)F (stereo not shown) [Example 131, 2-(3,8-Diazabicyclo[3.2.1]octan-3-yl)-4-(2,2-difluoro-1-methoxyethyl)-7-(thiazol-2-yl)benzo[d]oxazole]	< 100	–
FC(F)(F)COc1cc(-c2nccs2)c2oc(N3CC4CCC(C3)N4)nc2c1 [Example 66, 2-(3,8-Diazabicyclo[3.2.1]octan-3-yl)-7-(thiazol-2-yl)-5-(2,2,2-trifluoroethoxy)benzo[d]oxazole]	< 100	–

SMILES	IC50 [1] [nM]	IC50 [2] [nM]
FC(F)(F)c1c(Cl)cc(-n2cccn2)c2oc(N3CC4CCCC(C3)N4)nc12 [Example 16, 2-(3,9-Diazabicyclo[3.3.1]nonan-3-yl)-5-chloro-7-(1H-pyrazol-1-yl)-4-(trifluoromethyl)benzo[d]oxazole]	< 100	–
OC(c1cc(-c2cscn2)c2oc(N3CC4CC(C3)N4)nc2c1OC(F)(F)F)C(F)F (stereo not shown) [Example 300, 1-(2-(3,6-Diazabicyclo[3.1.1]heptan-3-yl)-7-(thiazol-4-yl)-4-(trifluoromethoxy)benzo[d]oxazol-5-yl)-2,2-difluoroethan-1-ol]	–	< 100
OC1(c2cc(-c3cscn3)c3oc(N4CC5CC(C4)N5)nc3c2OC(F)(F)F)CC1 [Example 299, 1-(2-(3,6-Diazabicyclo[3.1.1]heptan-3-yl)-7-(thiazol-4-yl)-4-(trifluoromethoxy)benzo[d]oxazol-5-yl)cyclopropan-1-ol]	–	< 100
COC(c1cc(-c2nccs2)c2oc(N3CC4CCCC(C3)N4)nc2c1)C(F)(F)F (stereo not shown) [Example 145, 2-(3,9-Diazabicyclo[3.3.1]nonan-3-yl)-7-(thiazol-2-yl)-5-(2,2,2-trifluoro-1-methoxyethyl)benzo[d]oxazole]	< 100	–
CC(=O)c1cc(-c2nccs2)c2oc(N3CC4CC(C3)N4)nc2c1 [Example 109, 1-(2-(3,6-Diazabicyclo[3.1.1]heptan-3-yl)-7-(thiazol-2-yl)benzo[d]oxazol-5-yl)ethan-1-one]	< 100	–
O=C(O)COC(c1ccc(-c2nccs2)c2oc(N3CC4CC(C3)N4)nc12)C(F)(F)F (stereo not shown) [Example 253, 2-(1-(2-(3,6-Diazabicyclo[3.1.1]heptan-3-yl)-7-(thiazol-2-yl)benzo[d]oxazol-4-yl)-2,2,2-trifluoroethoxy)acetic acid]	–	< 100
OC1(c2cc(-c3nccs3)c3oc(N4CC5CC(C4)N5)nc3c2OC(F)(F)F)CC1 [Example 269, 1-(2-(3,6-Diazabicyclo[3.1.1]heptan-3-yl)-7-(thiazol-2-yl)-4-(trifluoromethoxy)benzo[d]oxazol-5-yl)cyclopropan-1-ol]	–	< 100
c1csc(-c2ccc(-c3nccs3)c3oc(N4CC5CCC(C4)N5)nc23)n1 [Example 85, 2-(3,8-Diazabicyclo[3.2.1]octan-3-yl)-4,7-di(thiazol-2-yl)benzo[d]oxazole]	< 100	–
CCOC(=O)c1cc(-c2nccs2)c2oc(N3CC4CCCC(C3)N4)nc2c1 [Example 89, Ethyl 2-(3,9-diazabicyclo[3.3.1]nonan-3-yl)-7-(thiazol-2-yl)benzo[d]oxazole-5-carboxylate]	< 100	–
COC(c1ccc(-c2nccs2)c2oc(N3CC4CCC(C3)N4)nc12)C(F)(F)F (stereo not shown) [Example 222, 2-(3,8-Diazabicyclo[3.2.1]octan-3-yl)-7-(thiazol-2-yl)-4-(2,2,2-trifluoro-1-methoxyethyl)benzo[d]oxazole]	–	< 100
CCC(O)c1cc(-c2nccs2)c2oc(N3CC4CCC(C3)N4)nc2c1OC(F)(F)F (stereo not shown) [Example 204, 1-(2-(3,8-Diazabicyclo[3.2.1]octan-3-yl)-7-(thiazol-2-yl)-4-(trifluoromethoxy)benzo[d]oxazol-5-yl)propan-1-ol]	–	< 100
CCOC(c1cc(-c2nccs2)c2oc(N3CC4CC(C3)N4)nc2c1)C(F)(F)F (stereo not shown) [Example 150, 2-(3,6-Diazabicyclo[3.1.1]heptan-3-yl)-5-(1-ethoxy-2,2,2-trifluoroethyl)-7-(thiazol-2-yl)benzo[d]oxazole]	< 100	–
CC(=O)Nc1cc(-c2nccs2)c2oc(N3CC4CCCC(C3)N4)nc2c1 [Example 48, N-(2-(3,9-diazabicyclo[3.3.1]nonan-3-yl)-7-(thiazol-2-yl)benzo[d]oxazol-5-yl)acetamide]	< 100	–
O=C(c1cc(-c2nccs2)c2oc(N3CC4CCC(C3)N4)nc2c1)N1CCOCC1 [Example 95, (2-(3,8-Diazabicyclo[3.2.1]octan-3-yl)-7-(thiazol-2-yl)benzo[d]oxazol-5-yl) (morpholino)methanone]	< 100	–
CC(C)(O)COC(c1ccc(-c2nccs2)c2oc(N3CC4CC(C3)N4)nc12)C(F)F (stereo not shown) [Example 127, 1-(1-(2-(3,6-Diazabicyclo[3.1.1]heptan-3-yl)-7-(thiazol-2-yl)benzo[d]oxazol-4-yl)-2,2-difluoroethoxy)-2-methylpropan-2-ol]	< 100	–
OC(c1cc(-c2nccs2)c2oc(N3CC4CCC(C3)N4)nc2c1)C(F)(F)F (stereo not shown) [Example 138, 1-(2-(3,8-Diazabicyclo[3.2.1]octan-3-yl)-7-(thiazol-2-yl)benzo[d]oxazol-5-yl)-2,2,2-trifluoroethan-1-ol]	< 100	–
O=C(O)c1ccc(-c2nccs2)c2oc(N3CC4CCC(C3)N4)nc12 [Example 238, 2-(3,8-Diazabicyclo[3.2.1]octan-3-yl)-7-(thiazol-2-yl)benzo[d]oxazole-4-carboxylic acid]	–	< 100
